Data reported in patent publication US20220348910A1, “METHODS AND COMPOSITIONS FOR MULTIPLEX GENE EDITING” (THE GOVERNING COUNCIL OF THE UNIVERSITY OF TORONTO, priority 2019, published 2022).

Tested on: HPRT1
Experiment: Pooled positive selection hgRNA screen for resistance to 6-thioguanine
Format: cell-based, human
Conditions: 6-TG treated cells
Method: Lentiviral-based positive selection pooled hgRNA screens were performed, and the human HPRT1 and TK1 genes were targeted using guide pairs that either target within exonic regions, which are expected to result in gene knockout, or intronic loci flanking constitutive exons in these genes, which are expected to result in exon deletion (FIG. 1D). All of the exon-flanking hgRNAs in the library were designed to introduce double-strand DNA breaks at intronic sites that are at least 100 bps distal from splice sites flanking the target exons.
At T18 15 million cells were collected for genomic DNA extraction, and hgRNA expression cassettes were amplified and subjected to high-throughput sequencing as described below.

SMILES: Nc1nc2nc[nH]c2c(=S)[nH]1 [6-TG, 6-thioguanine]
- library constructs undetectable when cells were treated with 6-TG: 95.8%
